# Key:
# [1] = tested on: IPOHE (Morningglory, Ivyleaf); assay: Preemergence herbicidal evaluation; format: in vivo, Ipomoea hederacea; conditions: rated 4-5 weeks after treatment
# Outline: (§1)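 Scores use a 0–9 visual scale covering stand, vigor, malformation, size and chlorosis relative to controls, rated four to five weeks after treatment. Before emergence, soil-planted seeds were sprayed with compound in aqueous acetone at roughly 0.0156–0.500 kg/ha and held in the greenhouse.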
# CYPIR (Rice Flatsedge) = assay: Postemergence weed control under flooded paddy conditions; format: in vivo, Cyperus iria; conditions: postemergence weeds, 3-4 weeks after treatment
# Outline: (§2)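 Flood-water application, about 0.0313–0.500 kg/ha a.i. in aqueous/acetone 50/50 v/v; water depth 1.5–3 cm throughout. Weeds 3–5 cm, rice 1.5–2.5 leaf. Greenhouse; 0–9 visual rating vs control at 3–4 wk.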
# ECHCG (Barnyardgrass) = assay: Preemergence herbicidal evaluation; format: in vivo, Echinochloa crus-galli; conditions: rated 4-5 weeks after treatment
# Outline: as §1
# [2] = tested on: ECHORC (Watergrass (Calif.)); assay: Postemergence weed control under flooded paddy conditions; format: in vivo, Echinochloa oryzoides; conditions: postemergence weeds, 3-4 weeks after treatment
# Outline: as §2
# ZEAMX (Corn, Field) = assay: Postemergence herbicidal evaluation; format: in vivo, Zea mays; conditions: postemergence
# Outline: (§3)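 Visual 0-9 injury score (stand, vigor, malformation, size, chlorosis, appearance vs untreated) taken four to five weeks post-spray, averaged across repeat tests. Test plants about two weeks old; foliar spray of acetone/water (1:1) with 0.5% surfactant delivering ~0.0156-0.500 kg active/ha.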
# SETVI (Foxtail, Green) = assay: Postemergence herbicidal evaluation; format: in vivo, Setaria viridis; conditions: postemergence
# Outline: as §3
# CASOB (Sicklepod) = assay: Preemergence herbicidal evaluation; format: in vivo, Cassia obtusifolia; conditions: rated 4-5 weeks after treatment
# Outline: as §1
# [3] = tested on: ECHORC (Watergrass (Calif.)); assay: Preemergence weed control under flooded paddy conditions; format: in vivo, Echinochloa oryzoides; conditions: rated 3-4 weeks after treatment
# Outline: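 First, seeds or propagules go into the top 0.5 cm of silt loam; next, water is held 1.5 to 3 cm over the soil; then compound (50/50 acetone/water) is pipetted into it at about 0.0313 to 0.500 kg/ha; finally plants are rated visually 0-9 after three to four weeks.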
# ABUTH (Velvetleaf) [4] = assay: Postemergence herbicidal evaluation; format: in vivo, Abutilon theophrasti; conditions: postemergence
# Outline: as §3
# [5] = tested on: IPOHE (Morningglory, Ivyleaf); assay: Postemergence herbicidal evaluation; format: in vivo, Ipomoea hederacea; conditions: postemergence
# Outline: as §3
# CYPSE (Flatsedge) = assay: Preemergence weed control under flooded paddy conditions; format: in vivo, Cyperus serotinus; conditions: rated 3-4 weeks after treatment
# Outline: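 Ratings on a 0-9 visual scale cover stand, vigor, malformation, size, chlorosis and overall appearance relative to a control, taken three to four weeks post-treatment. Application was into flood water over freshly sown silt loam at roughly 0.0313 to 0.500 kg/ha.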
# AMBEL (Ragweed, Common) = assay: Preemergence herbicidal evaluation; format: in vivo, Ambrosia artemisifolia; conditions: rated 4-5 weeks after treatment
# Outline: as §1
# ABUTH (Velvetleaf) [6] = assay: Preemergence herbicidal evaluation; format: in vivo, Abutilon theophrasti; conditions: rated 4-5 weeks after treatment
# Outline: as §1
# [7] = tested on: GLXMAW (Soybean, Williams); assay: Postemergence herbicidal evaluation; format: in vivo, Glycine max, (L.) Merr. cv Williams; conditions: postemergence
# Outline: as §3
compound,measurement,setting,value
"CCOC(=O)CN1C(=O)C2(CC2)SC1=Nc1cc(-n2c(=O)cc(C(F)(F)F)n(C)c2=O)c(F)cc1Cl [Compound 15, Ethyl 5-{{2-chloro-5-[3,6-dihydro-3-methyl-2,6-dioxo-4-(trifluoromethyl)-1(2H)-pyrimidinyl]-4-fluorophenyl}imino}-7-oxo-4-thia-6-azaspiro[2.4]-heptane-6-acetate]",IPOHE preemergence herbicidal rating,[1]; rate 0.0156 kg/ha,1.0
same,IPOHE preemergence herbicidal rating,[1]; rate 0.0313 kg/ha,1.5
same,IPOHE preemergence herbicidal rating,[1]; rate 0.0625 kg/ha,1.5
same,IPOHE preemergence herbicidal rating,[1]; rate 0.1250 kg/ha,7.0
same,IPOHE preemergence herbicidal rating,[1]; rate 0.2500 kg/ha,9.0
same,Herbicidal rating CYPIR,CYPIR (Rice Flatsedge); rate 0.0313 kg/ha,2.0
same,Herbicidal rating CYPIR,CYPIR (Rice Flatsedge); rate 0.0625 kg/ha,2.0
same,Herbicidal rating CYPIR,CYPIR (Rice Flatsedge); rate 0.1250 kg/ha,6.0
same,Herbicidal rating CYPIR,CYPIR (Rice Flatsedge); rate 0.2500 kg/ha,7.0
same,ECHCG preemergence herbicidal rating,ECHCG (Barnyardgrass); rate 0.0156 kg/ha,0.0
same,ECHCG preemergence herbicidal rating,ECHCG (Barnyardgrass); rate 0.0313 kg/ha,0.5
same,ECHCG preemergence herbicidal rating,ECHCG (Barnyardgrass); rate 0.0625 kg/ha,1.0
same,ECHCG preemergence herbicidal rating,ECHCG (Barnyardgrass); rate 0.1250 kg/ha,2.0
same,ECHCG preemergence herbicidal rating,ECHCG (Barnyardgrass); rate 0.2500 kg/ha,4.5
same,Herbicidal rating ECHORC,[2]; rate 0.0313 kg/ha,6.0
same,Herbicidal rating ECHORC,[2]; rate 0.0625 kg/ha,9.0
same,Herbicidal rating ECHORC,[2]; rate 0.1250 kg/ha,9.0
same,Herbicidal rating ECHORC,[2]; rate 0.2500 kg/ha,9.0
same,ZEAMX herbicidal rating,"ZEAMX (Corn, Field); rate 0.0156 kg/ha",5.0
same,ZEAMX herbicidal rating,"ZEAMX (Corn, Field); rate 0.0313 kg/ha",6.0
same,ZEAMX herbicidal rating,"ZEAMX (Corn, Field); rate 0.0625 kg/ha",7.0
same,ZEAMX herbicidal rating,"ZEAMX (Corn, Field); rate 0.1250 kg/ha",7.5
same,SETVI herbicidal rating,"SETVI (Foxtail, Green); rate 0.0156 kg/ha",0.0
same,SETVI herbicidal rating,"SETVI (Foxtail, Green); rate 0.0313 kg/ha",0.0
same,SETVI herbicidal rating,"SETVI (Foxtail, Green); rate 0.0625 kg/ha",2.0
same,SETVI herbicidal rating,"SETVI (Foxtail, Green); rate 0.1250 kg/ha",7.0
same,CASOB preemergence herbicidal rating,CASOB (Sicklepod); rate 0.0156 kg/ha,0.0
same,CASOB preemergence herbicidal rating,CASOB (Sicklepod); rate 0.0313 kg/ha,0.5
same,CASOB preemergence herbicidal rating,CASOB (Sicklepod); rate 0.0625 kg/ha,0.5
same,CASOB preemergence herbicidal rating,CASOB (Sicklepod); rate 0.1250 kg/ha,2.0
same,CASOB preemergence herbicidal rating,CASOB (Sicklepod); rate 0.2500 kg/ha,6.5
same,Herbicidal rating ECHORC,[3]; 0.0313 kg/ha,6.0
same,Herbicidal rating ECHORC,[3]; 0.0625 kg/ha,9.0
same,Herbicidal rating ECHORC,[3]; 0.1250 kg/ha,9.0
same,Herbicidal rating ECHORC,[3]; 0.2500 kg/ha,9.0
same,ABUTH herbicidal rating,ABUTH (Velvetleaf) [4]; rate 0.0156 kg/ha,9.0
same,ABUTH herbicidal rating,ABUTH (Velvetleaf) [4]; rate 0.0313 kg/ha,9.0
same,ABUTH herbicidal rating,ABUTH (Velvetleaf) [4]; rate 0.0625 kg/ha,9.0
same,ABUTH herbicidal rating,ABUTH (Velvetleaf) [4]; rate 0.1250 kg/ha,9.0
same,IPOHE herbicidal rating,[5]; rate 0.0156 kg/ha,6.0
same,IPOHE herbicidal rating,[5]; rate 0.0313 kg/ha,9.0
same,IPOHE herbicidal rating,[5]; rate 0.0625 kg/ha,9.0
same,IPOHE herbicidal rating,[5]; rate 0.1250 kg/ha,9.0
same,Herbicidal rating CYPSE,CYPSE (Flatsedge); 0.0313 kg/ha,0.0
same,Herbicidal rating CYPSE,CYPSE (Flatsedge); 0.0625 kg/ha,0.0
same,Herbicidal rating CYPSE,CYPSE (Flatsedge); 0.1250 kg/ha,0.0
same,Herbicidal rating CYPSE,CYPSE (Flatsedge); 0.2500 kg/ha,0.0
same,AMBEL preemergence herbicidal rating,"AMBEL (Ragweed, Common); rate 0.0156 kg/ha",0.5
same,AMBEL preemergence herbicidal rating,"AMBEL (Ragweed, Common); rate 0.0313 kg/ha",1.0
same,AMBEL preemergence herbicidal rating,"AMBEL (Ragweed, Common); rate 0.0625 kg/ha",1.5
same,AMBEL preemergence herbicidal rating,"AMBEL (Ragweed, Common); rate 0.1250 kg/ha",3.0
same,AMBEL preemergence herbicidal rating,"AMBEL (Ragweed, Common); rate 0.2500 kg/ha",9.0
same,ABUTH preemergence herbicidal rating,ABUTH (Velvetleaf) [6]; rate 0.0156 kg/ha,1.5
same,ABUTH preemergence herbicidal rating,ABUTH (Velvetleaf) [6]; rate 0.0313 kg/ha,3.0
same,ABUTH preemergence herbicidal rating,ABUTH (Velvetleaf) [6]; rate 0.0625 kg/ha,9.0
same,ABUTH preemergence herbicidal rating,ABUTH (Velvetleaf) [6]; rate 0.1250 kg/ha,9.0
same,ABUTH preemergence herbicidal rating,ABUTH (Velvetleaf) [6]; rate 0.2500 kg/ha,9.0
same,GLXMAW herbicidal rating,[7]; rate 0.0156 kg/ha,3.5
same,GLXMAW herbicidal rating,[7]; rate 0.0313 kg/ha,4.0
same,GLXMAW herbicidal rating,[7]; rate 0.0625 kg/ha,4.5
same,GLXMAW herbicidal rating,[7]; rate 0.1250 kg/ha,5.5
